Test results as given in patent US11857544B2, “Composition or method including (t)ew-7197 for treating or preventing corneal endothelial diseases” (THE DOSHISHA, priority 2017, dated 2024).

System: fibronectin
Assay: Area of fibronectin expression by immunostaining, Col8a2 knock-in mice (Example 6)
Type: in vivo
Description: 5 μL of 0.02% (about 0.5 mM) EW-7197 eye drop, 0.1% (about 2.5 mM) EW-7197 eye drop, or a base agent (DMSO containing phosphate buffer) was administered as an eye drop to both eyes of 4-month-old alpha 2 collagen 8 gene (Col8a2) knock-in mice 4 times a day for 12 weeks. A surfactant was added to the base agent as needed. Those skilled in the art can use an appropriate and suitable surfactant (Kenji Motose (1984). “Tenganzai” [Eye drops] Nanzando; International Pharmaceutical Excipients Council Japan (2016). “Iyakuhin Tenkabutsu Jiten” [Pharmaceutical Excipient Encyclopedia] Yakuji Nippo, Limited). The corneal endothelial cell density was measured using a specular microscope KS3M (Konan Medical, Inc.) at before eye drops, and 3, 6, 9, and 12 weeks after eye drops. Mice were euthanized by intraperitoneally administering an excessive amount (200 mg/kg body weight or greater) of anesthetic injection Somnopentyl (Kyoritsu Seiyaku Corporation) 12 weeks after injection. After confirming cardiac arrest, both eye balls were harvested. The harvested eye balls were incised to prepare a corneal fragment. Immunostaining of fibronectin was performed. The immunostaining method was the following. Image-Pro (Nippon Roper K.K.) was used to analyze the area of fibronectin expression.
After immobilizing a mouse corneal fragment for 10 minutes at room temperature in 4% paraformaldehyde, 0.5% TritonX-100 was added and allowed to permeate for 5 minutes. 1% bovine serum albumin (BSA) was added and the fragment was incubated for 1 hour at room temperature. The corneal fragment was then immersed in a primary antibody solution and reacted overnight at 4° C. 1:250 diluent of fibronectin polyclonal antibody (abcam) was used as the primary antibody. Next, the corneal fragment was immersed in a mixture of a secondary antibody solution and DAPI solution (Dojindo Laboratories) and reacted for 1 hour at room temperature away from light. 1:2000 diluent of Alexa Fluor® 488-labeled goat anti-rabbit IgG (Life Technologies) was used as the secondary antibody. 1:1000 diluent of DAPI solution was used. […]

## Cc1cccc(-c2[nH]c(CNc3ccccc3F)nc2-c2ccc3ncnn3c2)n1 [EW-7197, N-((4-([1,2,4]triazolo[1,5-a]pyridin-6-yl)-5-(6-methylpyridin-2-yl)-1H-imidazol-2-yl)methyl)-2-fluoroaniline]
0.004% (0.1 mM) eye drop
  fibronectin expression: tendency of suppressing fibronectin expression
0.02% eye drop, 12 weeks
  fibronectin expression: clear suppression of fibronectin expression
0.1% eye drop, 12 weeks
  fibronectin expression: clear suppression of fibronectin expression
